# Results reported in patent publication US6706716B2, “Compounds specific for the human α1d adrenergic receptor and uses thereof” (Synaptic Pharmaceutical Corporation, priority 1998, dated 2004).
# Legend:
# [1] = molecular target: T1, human α1d adrenergic receptor (Homo sapiens, UniProt P25100); assay: Radioligand binding ([3H]prazosin) at cloned human α1d adrenergic receptor; conditions: LM(tk-) cell membranes, read-out: Binding affinities (pKi) α1d (converted)
# T1 construct: The entire coding region. of α1d (1719 bp); expressed in transfected cells
# T1 sequence (P25100 1-572): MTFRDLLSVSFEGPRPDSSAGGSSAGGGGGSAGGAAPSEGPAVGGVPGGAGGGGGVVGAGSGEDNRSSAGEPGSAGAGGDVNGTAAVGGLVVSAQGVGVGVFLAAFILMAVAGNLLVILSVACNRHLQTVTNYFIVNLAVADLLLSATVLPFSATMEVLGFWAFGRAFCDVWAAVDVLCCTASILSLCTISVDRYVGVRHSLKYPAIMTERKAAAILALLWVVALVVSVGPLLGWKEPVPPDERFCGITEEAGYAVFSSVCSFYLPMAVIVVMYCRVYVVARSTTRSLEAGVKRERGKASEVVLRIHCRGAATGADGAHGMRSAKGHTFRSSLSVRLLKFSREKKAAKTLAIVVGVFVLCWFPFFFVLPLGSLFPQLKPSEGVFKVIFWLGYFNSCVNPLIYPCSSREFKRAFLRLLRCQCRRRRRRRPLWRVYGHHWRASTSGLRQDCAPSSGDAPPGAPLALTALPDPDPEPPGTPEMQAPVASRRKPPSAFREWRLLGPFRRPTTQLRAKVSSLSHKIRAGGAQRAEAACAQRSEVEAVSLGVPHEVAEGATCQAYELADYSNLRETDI
# Protocol: (§1) First, conditions were determined which allowed measurement of the specific binding of a compound known to bind to the receptor. Then, the binding of the known compound to the receptor in membrane preparations was evaluated in the presence of several different concentrations of the test compound.
# (§2) These cell lines were prepared by transfecting the cloned cDNA or cloned genomic DNA or constructs containing both genomic DNA and cDNA encoding the human receptors as described below.
# α1d Human Adrenergic Receptor: The entire coding region. of α1d (1719 bp), including 150 base pairs of 5′ untranslated sequence (5′ UT) and 300 bp of 3′ untranslated sequence (3′ UT), was cloned into the BamHI and ClaI sites of the polylinker-modified eukaryotic expression vector pCEXV-3, called EXJ.HR. The construct involved the ligation of partial overlapping human lymphocyte genomic and hippocampal cDNA clones: 5′ sequence were contained on a 1.2 kb SmaI-XhoI genomic fragment (the vector-derived BamHI site was used for subcloning instead of the internal insert-derived SmaI site) and 3′ sequences were contained on a 1.3 kb XhoI-ClaI cDNA fragment (the ClaI site was from the vector polylinker). Stable cell lines were obtained by cotransfection with the plasmid α1A/EXJ (expression vector containing the α1a receptor gene (old nomenclature)) and the plasmid pGCcos3neo (plasmid containing the aminoglycoside transferase gene) into LM(tk-) cells using the calcium phosphate technique. The cells were grown, in a controlled environment (37° C., 5% CO2), as monolayers in Dulbecco's modified Eagle's Medium (GIBCO, Grand Island, N.Y.) containing 25 mM glucose and supplemented with 10% bovine calf serum, 100 units/ml penicillin g, and 100 μg/ml streptomycin sulfate. Stable clones were then selected for resistance to the antibiotic G-418 (1 mg/ml), and membranes were harvested and assayed for their ability to bind [^3H]prazosin as described below (see Radioligand Binding assays).
# The cell line expressing the human α1d receptor used herein was designated L-α1A (old nomenclature) and was deposited with the American Type Culture Collection, 12301 Parklawn Drive, Rockville, Md. 20852, U.S.A. under the provisions of the Budapest Treaty for the International Recognition of the Deposit of Microorganisms for the Purposes of Patent Procedure. The cell line expressing the human α1d receptor, was accorded ATCC Accession No. CRL 11138, and was deposited on Sep. 25, 1992.
# (§3) Radioligand Binding Assays for α1 Human Adrenergic Receptors: Transfected cells from culture flasks were scraped into 5 ml of 5 mM Tris-HCl, 5 mM EDTA, pH 7.5, and lysed by sonication. The cell lysates were centrifuged at 1000 rpm for 5 min at 4° C., and the supernatant was centrifuged at 30,000×g for 20 min at 4° C. The pellet was suspended in 50 mM Tris-HCl, 1 mM MgCl2, and 0.1% ascorbic acid at pH 7.5. Binding of the α1, antagonist [^3H]prazosin (0.5 nM, specific activity 76.2 Ci/mmol) to membrane preparations of LM(tk-) cells was done in a final volume of 0.25 ml and incubated at 37° C. for 1 hour. Nonspecific binding was determined in the presence of 10 μM phentolamine. The reaction was stopped by filtration through GF/B filters using a cell harvester.
# [2] = molecular target: T2, human α1a adrenergic receptor (Homo sapiens, UniProt P35348); assay: Radioligand binding ([3H]prazosin) at cloned human α1a adrenergic receptor; conditions: LM(tk-) cell membranes, read-out: Binding affinities (pKi) α1a (converted)
# T2 construct: The entire coding region of α1a (1401 bp); expressed in transfected cells
# T2 sequence (P35348 1-466): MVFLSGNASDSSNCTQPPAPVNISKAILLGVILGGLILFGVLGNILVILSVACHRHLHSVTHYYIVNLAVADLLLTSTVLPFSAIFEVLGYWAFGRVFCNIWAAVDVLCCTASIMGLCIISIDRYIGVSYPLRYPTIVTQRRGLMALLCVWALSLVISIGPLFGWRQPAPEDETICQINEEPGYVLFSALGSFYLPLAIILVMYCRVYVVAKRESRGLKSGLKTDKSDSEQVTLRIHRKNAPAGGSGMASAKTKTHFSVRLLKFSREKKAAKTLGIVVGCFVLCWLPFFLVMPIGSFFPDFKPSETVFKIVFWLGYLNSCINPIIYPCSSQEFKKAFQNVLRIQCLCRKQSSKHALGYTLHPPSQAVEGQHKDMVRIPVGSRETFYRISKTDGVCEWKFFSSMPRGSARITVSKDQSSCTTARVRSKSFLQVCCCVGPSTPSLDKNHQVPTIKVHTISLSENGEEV
# Protocol: as §1, §2
# The construct involved ligating three partial overlapping fragments: a 5′0.6 kb HincII genomic clone, a central 1.8 EcoRI hippocampal cDNA clone, and a 3′0.6 Kb PstI genomic clone. The hippocampal cDNA fragment overlaps with the 5′ and 3′ genomic clones so that the HincII and PstI sites at the 5′ and 3′ ends of the cDNA clone, respectively, were utilized for ligation. This full-length clone was cloned into the KpnI site of the expression vector, using the 5′ and 3′ KpnI sites of the fragment, derived from vector (i.e., pBluescript) and 3′-untranslated sequences, respectively. Stable cell lines were selected as described above. Membranes were harvested and assayed for their ability to bind [^3H]prazosin as described below (see Radioligand Binding assays).
# as §3
# [3] = molecular target: T3, human α1b adrenergic receptor (Homo sapiens, UniProt P35368); assay: Radioligand binding ([3H]prazosin) at cloned human α1b adrenergic receptor; conditions: LM(tk-) cell membranes, read-out: Binding affinities (pKi) α1b (converted)
# T3 construct: The entire coding region of α1b (1563 bp); expressed in transfected cells
# T3 sequence (P35368 1-520): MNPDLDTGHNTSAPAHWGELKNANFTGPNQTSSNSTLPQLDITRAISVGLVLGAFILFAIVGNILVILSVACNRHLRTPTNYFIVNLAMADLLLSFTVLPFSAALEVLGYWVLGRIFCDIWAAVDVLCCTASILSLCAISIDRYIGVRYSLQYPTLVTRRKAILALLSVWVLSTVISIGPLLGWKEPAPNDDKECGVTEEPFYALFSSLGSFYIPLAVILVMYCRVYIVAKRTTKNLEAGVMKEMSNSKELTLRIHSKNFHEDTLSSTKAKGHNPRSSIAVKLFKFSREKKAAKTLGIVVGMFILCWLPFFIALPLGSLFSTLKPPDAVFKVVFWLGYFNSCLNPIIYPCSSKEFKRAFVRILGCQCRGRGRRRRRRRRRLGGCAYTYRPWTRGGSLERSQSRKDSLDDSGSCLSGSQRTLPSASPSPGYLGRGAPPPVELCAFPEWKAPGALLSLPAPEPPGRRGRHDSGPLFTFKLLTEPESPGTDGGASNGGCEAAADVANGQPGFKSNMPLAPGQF
# Protocol: as §1, §2
# α1b Human Adrenergic Receptor: The entire coding region of α1b (1563 bp), including 200 base pairs of 5′ untranslated sequence (5′ UT) and 600 bp of 3′ untranslated sequence (3′ UT), was cloned into the EcoRI site of pCEXV-3 eukaryotic expression vector. The construct involved ligating the full-length EcoRI brainstem cDNA fragment from λ ZapII into the expression vector. Stable cell lines were selected as described above. Membranes were harvested and assayed for their ability to bind [^3H]prazosin as described below (see Radioligand Binding assays). The cell line used herein was designated L-α1B and was deposited with the American Type Culture Collection, 12301 Parklawn Drive, Rockville, Md. 20852, U.S.A. under the provisions of the Budapest Treaty for the International Recognition of the Deposit of Microorganisms for the Purposes of Patent Procedure. The cell line L-α1B was accorded ATCC Accession No. CR 11139, on Sep. 29, 1992.
# as §3
# [4] = system: urethane-anesthetized rats; assay: Blood pressure in urethane-anesthetized, normotensive rats; assay type: in vivo, rat
# Protocol: Rats were anesthetized with urethane and PE50 cannulae were placed in the femoral artery and vein for blood pressure monitoring and drug administration, respectively. After stabilization, rats were administered 200 μl saline vehicle or increasing doses of BMY 7378 or Compound 7 at 10 minutes intervals until the reduction in blood pressure reached a plateau. The 5-HT1A-selective antagonist WAY 100635 (1 mg/kg) was then administered and blood pressure monitored for an additional 10 minutes.
Compound,Ki [1] [nM],Ki [2] [nM],Ki [3] [nM],reversal of the blood pressure effect by WAY 100635 ([4]; 5-HT1A-selective antagonist WAY 100635 1 mg/kg given after plateau),"effect on systolic, diastolic and mean blood pressure ([4]; urethane-anesthetized rats, increasing i.v. doses at 10 min intervals)"
"C[C@H](CN1CCN(c2cc(F)c(F)cc2F)CC1)N1C(=O)CC2(CCCC2)CC1=O [Compound 9, 8-{(1R)-2-[4-(2,4,5-Trifluorophenyl)piperazin-1-yl]-1-methylethyl}-8-azaspiro[4.5]decane-7,9-dione]",1.26,15800,–,–,–
"O=C1CC2(CCCC2)CC(=O)N1[C@@H](CN1CCN(c2cc(F)c(F)cc2F)CC1)c1ccccc1 [Compound 16, 8-{(1R)-1-Phenyl-2-[4-(2,4,5-trifluorophenyl)piperazino]ethyl}-8-azaspiro[4.5]decane-7,9-dione]",79.4,7940,–,–,–
"C[C@@H](CN1CCN(c2cc(F)c(F)cc2F)CC1)N1C(=O)CC2(CCCC2)CC1=O [Compound 11, 8-{(1S)-2-[4-(2,4,5-Trifluorophenyl)piperazin-1-yl]-1-methylethyl}-8-azaspiro[4.5]decane-7,9-dione]",126,12600,–,–,–
"O=C1CC2(CCCC2)CC(=O)N1CCN1CCN(c2ccccc2F)CC1 [Compound 20, 8-{2-[4-(2-Fluorophenyl)piperazin-1-yl]ethyl}-8-azaspiro[4.5]decane-7,9-dione]",–,631,63.1,–,–
"O=C1CC2(CCCC2)CC(=O)N1[C@H](Cc1ccccc1)CN1CCN(c2cc(F)c(F)cc2F)CC1 [Compound 17, 8-{(1R)-1-Benzyl-2-[4-(2,4,5-trifluorophenyl)piperazino]ethyl}-8-azaspiro[4.5]decane-7,9-dione]",79.4,10000,–,–,–
"COc1ccccc1N1CCN(CCN2C(=O)CC3(CCCC3)CC2=O)CC1 [BMY 7378, reference compound]",–,–,–,reversed,dose-dependent reduction
